Laboratory results from publication PMC12503909, “C1′‐Branched Acyclic Nucleoside Phosphonates as Inhibitors of Plasmodium Falciparum 6‐Oxopurine Phosphoribosyltransferase” (Chemmedchem, 2025).
Structures can show the parent of a compound that is named as a salt.

Columns and labels:
human HGPRT = molecular target: T1, human HGPRT (Homo sapiens, UniProt P00492); experiment: Determination of Ki values, human HGPRT; assay type: biochemical; conditions: 0.1 M Tris-HCl, 10 mM MgCl2, pH 7.4; guanine 60 μM, variable PRib-PP; mean ± SD of three independent experiments
T1 construct: made in house
T1 sequence (P00492 1-218): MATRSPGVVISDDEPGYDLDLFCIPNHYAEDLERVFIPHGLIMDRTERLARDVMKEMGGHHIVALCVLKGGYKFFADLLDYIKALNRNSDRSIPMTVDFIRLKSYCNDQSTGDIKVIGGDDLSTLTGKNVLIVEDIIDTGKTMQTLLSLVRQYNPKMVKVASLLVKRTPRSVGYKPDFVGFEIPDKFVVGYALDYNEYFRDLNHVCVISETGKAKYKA
Procedure: (§1) The human and Pf enzymes were purified as described previously.^[ [7] ^, [26] ^] All assays were performed in 0.1 M Tris‐HCl, 10 mM MgCl2, pH 7.4. […] The K i was calculated using the equation, v o = Vmax.[S]o/[S]o + K m(app) and K m(app) = K m [1 + [I]/K i ].

PfHGXPRT = molecular target: T2, PfHGXPRT (Plasmodium falciparum, UniProt P20035); experiment: Determination of Ki values, PfHGXPRT; assay type: biochemical; conditions: 0.1 M Tris-HCl, 10 mM MgCl2, pH 7.4; guanine 60 μM, variable PRib-PP; mean ± SD of three independent experiments
T2 construct: made in house
T2 sequence (P20035 1-231): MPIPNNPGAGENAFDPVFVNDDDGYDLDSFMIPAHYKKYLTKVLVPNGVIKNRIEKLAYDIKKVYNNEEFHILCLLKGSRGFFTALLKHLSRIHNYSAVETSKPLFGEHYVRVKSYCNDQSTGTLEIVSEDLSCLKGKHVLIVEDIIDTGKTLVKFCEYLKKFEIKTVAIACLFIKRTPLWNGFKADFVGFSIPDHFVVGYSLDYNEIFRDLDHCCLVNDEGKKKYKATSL
Procedure: as §1

P. falciparum D6 = experiment: In vitro antimalarial activity, 3H-hypoxanthine growth inhibition assay, D6 line; assay type: cell-based, Plasmodium falciparum; conditions: Plasmodium falciparum, D6, Erythrocyte, 96 h, Pf infected erythrocytes, D6 strain sensitive to chloroquine, mean ± SD of three independent experiments
Procedure: (§2) The IC50 values were determined as previously described.^[ [32] ^] P. falciparum D6 (Sierra‐Leone) laboratory line, sensitive to most antimalarial drugs, and W2 (Indochina) line, resistant to chloroquine and pyrimethamine, were maintained as previously described^[ [33] ^] in medium consisted of 10.4 g L^−1 RPMI‐1640‐LPLF powder (Gibco BRL), 5.97 g L^−1 HEPES buffer (MP Biomedicals, USA), 2.0 g L^−1 d‐glucose (BDH chemicals, Australia), 0.05 g L^−1 hypoxanthine (Sigma, USA) and 40 mg L^−1 gentamycin (Pfizer, Australia), supplemented with 0.21% NaHCO3 and 10% human plasma prior to use. Red blood cells O (Rh+) type were obtained from the Australian Red Cross Blood Service and added to 4% haematocrit. Cultures were routinely synchronized using D‐sorbitol.^[ [34] ^] To evaluate the antimalarial activity of the ANPs, the ^3H‐hypoxanthine growth inhibition assay was utilized, where the uptake of ^3H‐hypoxanthine by malaria parasites is used as a surrogate marker for parasite growth. For these assays, stock solutions of the tested compounds were made to concentrations of 20–40 mM in DMSO or water and subsequently diluted in hypoxanthine‐free complete media prior to assay. The assays (in 96‐well plate format) were initiated when most parasites (> 90%) were at the early trophozoite (ring) stage. Parasite cultures (100 μL per well) at 0.5% initial parasitemia and 2% hematocrit in hypoxanthine‐free RPMI1640‐LPLF medium were exposed to ten twofold serial dilutions of the compounds and chloroquine (reference drug) for 96 h, with ^3H‐hypoxanthine (0.2 μCi well^−1) added ≈48 h after the beginning of the experiment.
(§3) The ^3H‐hypoxanthine incorporation data were analyzed, and sigmoidal growth inhibition curves were produced by nonlinear regression analysis of the ^3H‐hypoxanthine incorporation data versus log‐transformed concentrations of the compounds using Graphpad Prism V5.0 software (GraphPad Software Inc. USA). […] The IC50 values were based on three independent experiments, with mean ± SD calculated.

P. falciparum W2 = experiment: In vitro antimalarial activity, 3H-hypoxanthine growth inhibition assay, W2 line; assay type: cell-based, Plasmodium falciparum; conditions: Plasmodium falciparum, W2, Erythrocyte, 96 h, Pf infected erythrocytes, W2 strain resistant to chloroquine, mean ± SD of three independent experiments
Procedure: as §2, §3

HL-60 = experiment: Cytotoxicity of the prodrug in human cells (CellTiter-Glo 2.0), HL-60; assay type: cell-based; conditions: 10 µM, versus untreated control; mean ± SD
Procedure: (§4) Compound cytotoxicity was evaluated in nontumor human dermal fibroblasts (NHDF), CCRF‐CEM, HL‐60, HeLa, and HepG2 cells. All cell lines were obtained from ATCC (Manassas, VA, USA). The cytotoxicity was assayed using CellTiter‐Glo 2.0 detection reagent (Promega, Madison, USA) according to the manufacturer's protocol. The concentration of prodrug used in this assay was 10 μM. This concentration was chosen as it would more accurately reflect the expected concentration in an in vitro assessment.

CCRF-CEM = experiment: Cytotoxicity of the prodrug in human cells (CellTiter-Glo 2.0), CCRF-CEM; assay type: cell-based; conditions: 10 µM, versus untreated control; mean ± SD
Procedure: as §4

HeLa = experiment: Cytotoxicity of the prodrug in human cells (CellTiter-Glo 2.0), HeLa; assay type: cell-based; conditions: 10 µM, versus untreated control; mean ± SD
Procedure: as §4

HepG2 = experiment: Cytotoxicity of the prodrug in human cells (CellTiter-Glo 2.0), HepG2; assay type: cell-based; conditions: 10 µM, versus untreated control; mean ± SD
Procedure: as §4

NHDF = experiment: Cytotoxicity of the prodrug in human cells (CellTiter-Glo 2.0), NHDF; assay type: cell-based; conditions: 10 µM, versus untreated control; mean ± SD
Procedure: as §4

| Ki (human HGPRT) [µM] | Ki (PfHGXPRT) [µM] | Structure (SMILES) | IC50 (P. falciparum D6) [µM] | IC50 (P. falciparum W2) [µM] | Viability HL-60 (HL-60) [% control] | Viability CCRF-CEM (CCRF-CEM) [% control] | Viability HeLa (HeLa) [% control] | Viability HepG2 (HepG2) [% control] | Viability NHDF (NHDF) [% control] |
| --- | --- | --- | --- | --- | --- | --- | --- | --- | --- |
| > 60 | > 60 | O=c1[nH]cnc2c1cnn2C(COCCP(=O)(O)O)OCCO (stereo not drawn) [20f, Sodium salt of (2‐(2‐(2‐hydroxyethoxy)‐2‐(4‐oxo‐4,5‐dihydro‐1H‐pyrazolo[3,4‐d]pyrimidin‐1‐yl)ethoxy)ethyl)phosphonic acid] |  |  |  |  |  |  |  |
| > 20 | 10 ± 5 | O=c1[nH]cnc2c1ncn2C(COCCP(=O)(O)O)OCCO (stereo not drawn) [20c, Sodium salt of (2‐(2‐(2‐hydroxyethoxy)‐2‐(hypoxanthin‐9‐yl)ethoxy)ethyl)phosphonic acid] |  |  |  |  |  |  |  |
| > 60 | > 60 | O=c1[nH]cnc2c1cnn2C(CCOCP(=O)(O)O)OCCCO (stereo not drawn) [20i, Sodium salt of ((3‐(3‐hydroxypropoxy)‐3‐(4‐oxo‐4,5‐dihydro‐1H‐pyrazolo[3,4‐d]pyrimidin‐1‐yl)propoxy)methyl)phosphonic acid] |  |  |  |  |  |  |  |
|  |  | CCOC(=O)[C@H](Cc1ccccc1)NP(=O)(COCCC(OCCCO)n1ncc2c(=O)[nH]cnc21)N[C@@H](Cc1ccccc1)C(=O)OCC (stereo partly drawn) [21g, Bis‐(L‐phenylalaninateethyl ester) prodrug of ((3‐(3‐hydroxypropoxy)‐3‐(4‐oxo‐4,5‐dihydro‐1H‐pyrazolo[3,4‐d]pyrimidin‐1‐yl)propoxy)methyl) phosphonic acid] | 11 ± 1 | 15 ± 2 | 107 ± 2 | 105 ± 2 | 106 ± 2 | 111 ± 6 | 114 ± 3 |
| 3.7 ± 0.9 | 3 ± 0.5 | CCOC(COCCP(=O)(O)O)n1cnc2c(=O)[nH]c(N)nc21 (stereo not drawn) [compound 25, Sodium salt of (2‐(2‐(guanin‐9‐yl)‐2‐ethoxyethoxy)ethyl)phosphonic acid] |  |  |  |  |  |  |  |
|  |  | CCOC(=O)[C@H](Cc1ccccc1)NP(=O)(COCC(OCCO)n1cnc2c(=O)[nH]c(N)nc21)N[C@@H](Cc1ccccc1)C(=O)OCC (mixture of isomers) [21b, Bis‐(L‐phenylalaninate ethyl ester) prodrug of ((2‐(guanin‐9‐yl)‐2‐(2‐hydroxyethoxy)ethoxy)methyl)phosphonic acid] | 84 ± 10 | 79 ± 8 | 100 ± 2 | 97 ± 1 | 91 ± 2 | 93 ± 4 | 94 ± 8 |
| 2.5 ± 0.4 | 0.4 ± 0.1 | Nc1nc2c(ncn2C(COCCP(=O)(O)O)OCCO)c(=O)[nH]1 (stereo not drawn) [20d, Sodium salt of (2‐(2‐(2‐hydroxyethoxy)‐2‐(guanin‐9‐yl)ethoxy)ethyl)phosphonic acid] |  |  |  |  |  |  |  |
|  |  | CCOC(=O)[C@H](Cc1ccccc1)NP(=O)(COCCC(OCCCO)n1cnc2c(=O)[nH]cnc21)N[C@@H](Cc1ccccc1)C(=O)OCC (stereo partly drawn) [21e, Bis‐(L‐phenylalaninate ethyl ester) prodrug of ((3‐(3‐hydroxypropoxy)‐3‐(hypoxanthin‐9‐yl)propoxy)methyl) phosphonic acid] | 14 ± 2 | 41 ± 5 | 110 ± 1 | 105 ± 2 | 105 ± 1 | 106 ± 3 | 110 ± 7 |
|  |  | CCOC(=O)[C@H](Cc1ccccc1)NP(=O)(COCC(OCCO)n1cnc2c(=O)[nH]cnc21)N[C@@H](Cc1ccccc1)C(=O)OCC (stereo partly drawn) [21a, Bis‐(L‐phenylalaninate ethyl ester) prodrug of ((2‐(2‐hydroxyethoxy)‐2‐(hypoxanthin‐9‐yl)ethoxy)methyl)phosphonic acid] | 34 ± 6 | 71 ± 1 | 103 ± 0 | 101 ± 2 | 97 ± 2 | 98 ± 3 | 104 ± 8 |
|  |  | CCOC(=O)[C@H](Cc1ccccc1)NP(=O)(CCOCC(OCCO)n1cnc2c(=O)[nH]c(N)nc21)N[C@@H](Cc1ccccc1)C(=O)OCC (stereo partly drawn) [21d, Bis‐(L‐phenylalaninate ethyl ester) prodrug of (2‐(2‐(guanin‐9‐yl)‐2‐(2‐hydroxyethoxy)ethoxy)ethyl) phosphonic acid] | 64 ± 6 | 39 ± 5 | 105 ± 1 | 99 ± 4 | 100 ± 2 | 107 ± 2 | 112 ± 1 |
| > 60 | > 60 | O=c1[nH]cnc2c1ncn2C(CCOCP(=O)(O)O)OCCCO (stereo not drawn) [20g, Sodium salt of ((3‐(3‐hydroxypropoxy)‐3‐(hypoxanthin‐9‐yl)propoxy)methyl)phosphonic acid] |  |  |  |  |  |  |  |
| 0.7 ± 0.4 | 1 ± 0.2 | Nc1nc2c(ncn2C(COCCP(=O)(O)O)OCCOCP(=O)(O)O)c(=O)[nH]1 (stereo not drawn) [18b, Sodium salt of (2‐(2‐(guanin‐9‐yl)‐2‐(2‐(phosphonatomethoxy)ethoxy)ethoxy)ethyl)phosphonic acid] |  |  |  |  |  |  |  |
| > 60 | 5 ± 1 | O=c1[nH]cnc2c1ncn2C(COCCP(=O)(O)O)OCCOCP(=O)(O)O (stereo not drawn) [18a, Sodium salt of (2‐(2‐(hypoxanthin‐9‐yl)‐2‐(2‐(phosphonatomethoxy)ethoxy)ethoxy)ethyl)phosphonic acid] |  |  |  |  |  |  |  |
| 30 ± 5 | 5 ± 1 | Nc1nc2c(ncn2C(COCP(=O)(O)O)OCCO)c(=O)[nH]1 (stereo not drawn) [20b, Sodium salt of ((2‐(guanin‐9‐yl)‐2‐(2‐hydroxyethoxy)ethoxy)methyl)phosphonic acid] |  |  |  |  |  |  |  |
| 160 |  | O=c1[nH]cnc2c1ncn2C(COCP(=O)(O)O)OCCO (stereo not drawn) [20a, Sodium salt of ((2‐(2‐hydroxyethoxy)‐2‐(hypoxanthin‐9‐yl)ethoxy)methyl) phosphonic acid] |  |  |  |  |  |  |  |
| > 60 | 50 ± 10 | O=c1[nH]c(Cl)nc2c1ncn2C(COCCP(=O)(O)O)OCCO (stereo not drawn) [20e, Sodium salt of (2‐(2‐(2‐chlorohypoxanthin‐9‐yl)‐2‐(2‐hydroxyethoxy)ethoxy)ethyl)phosphonic acid] |  |  |  |  |  |  |  |
| 10 ± 3 | > 60 | Nc1nc2c(ncn2C(CCOCP(=O)(O)O)OCCCO)c(=O)[nH]1 (stereo not drawn) [20h, Sodium salt of ((3‐(guanin‐9‐yl)‐3‐(3‐hydroxypropoxy)propoxy)methyl)phosphonic acid] |  |  |  |  |  |  |  |
|  |  | CCOC(=O)[C@H](Cc1ccccc1)NP(=O)(CCOCC(OCCOCP(=O)(N[C@@H](Cc1ccccc1)C(=O)OCC)N[C@@H](Cc1ccccc1)C(=O)OCC)n1cnc2c(=O)[nH]c(N)nc21)N[C@@H](Cc1ccccc1)C(=O)OCC (mixture of isomers) [19b, Tetra‐(L‐phenylalaninate ethyl ester) prodrug of (2‐(2‐(guanin‐9‐yl)‐2‐(2‐(phosphonatomethoxy)ethoxy)ethoxy)ethyl)phosphonic acid] | 4.3 ± 0.7 | 8.8 ± 2.6 |  |  |  |  |  |
